Experimental data published in publication PMC6934184, “Selective DNA-PKcs inhibition extends the therapeutic index of localized radiotherapy and chemotherapy” (The Journal of Clinical Investigation, 2019).

Biological target: T1, LATS2 (Homo sapiens, UniProt Q9NRM7)
T1 construct: purchased Thermo Fisher Scientific (Life Technologies) SelectScreen
Assay: SelectScreen LanthaScreen
Assay type: binding
Settings: 1 µM
Summary of the method: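 SelectScreen broad panel; activity (Z'LYTE, Adapta) plus binding formats. ATP: Km app for CSF1R Z'LYTE; 10 for CAMK1 Adapta. Readout = % per kinase.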

T1 sequence (Q9NRM7 whole entry): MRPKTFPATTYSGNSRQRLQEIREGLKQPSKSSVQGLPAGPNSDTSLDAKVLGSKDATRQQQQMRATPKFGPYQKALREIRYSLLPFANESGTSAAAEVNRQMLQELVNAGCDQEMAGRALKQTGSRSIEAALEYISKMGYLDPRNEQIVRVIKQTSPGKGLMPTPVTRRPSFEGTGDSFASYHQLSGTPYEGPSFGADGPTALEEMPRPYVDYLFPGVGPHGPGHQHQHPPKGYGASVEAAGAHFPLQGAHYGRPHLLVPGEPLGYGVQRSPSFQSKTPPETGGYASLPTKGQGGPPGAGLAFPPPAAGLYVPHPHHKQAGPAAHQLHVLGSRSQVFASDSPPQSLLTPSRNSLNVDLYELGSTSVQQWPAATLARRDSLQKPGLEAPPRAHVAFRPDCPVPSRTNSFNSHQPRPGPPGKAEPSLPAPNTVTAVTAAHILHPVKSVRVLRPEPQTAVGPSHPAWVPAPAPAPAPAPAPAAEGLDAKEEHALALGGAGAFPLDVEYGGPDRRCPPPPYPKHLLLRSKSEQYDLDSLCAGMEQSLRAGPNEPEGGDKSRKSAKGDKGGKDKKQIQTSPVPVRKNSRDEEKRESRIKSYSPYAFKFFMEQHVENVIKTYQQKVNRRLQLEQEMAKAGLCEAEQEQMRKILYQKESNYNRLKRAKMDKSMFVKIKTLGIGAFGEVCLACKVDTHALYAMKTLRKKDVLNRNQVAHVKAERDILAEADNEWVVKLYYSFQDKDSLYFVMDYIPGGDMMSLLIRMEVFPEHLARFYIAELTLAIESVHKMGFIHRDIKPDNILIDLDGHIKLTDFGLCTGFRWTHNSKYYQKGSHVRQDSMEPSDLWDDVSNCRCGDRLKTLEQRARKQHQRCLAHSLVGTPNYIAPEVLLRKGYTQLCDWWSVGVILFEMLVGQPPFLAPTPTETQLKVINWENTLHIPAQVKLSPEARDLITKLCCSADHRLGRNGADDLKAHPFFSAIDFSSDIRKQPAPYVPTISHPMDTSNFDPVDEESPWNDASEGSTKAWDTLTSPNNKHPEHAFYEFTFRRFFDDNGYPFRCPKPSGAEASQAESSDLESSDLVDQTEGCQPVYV

Structure (SMILES): CN(C(=O)CN1CCOCC1)c1ccc2sc3c(-c4cccc5c(=O)cc(N6CC7CCC(C6)O7)oc45)cccc3c2c1 [NU5455]
- % displacement: 4.7%
